Positions of bridges follow the written chain, without caps; N, C: chain ends. No end group written: not given here.
What was measured:
[1] = biological target: T1, human SLC-1 (Homo sapiens, UniProt Q99705); assay: GTPγS binding activity using human SLC-1-expression CHO cell membrane fraction (Example 16); type: biochemical
T1 construct: expressed in transfected cells; host or cells: CHO dhfr- cells, plasmid pAKK0-hSLC-1(S) or pAKK0-hSLC-1(L)
Description: A human SLC-1-expression CHO cell membrane fraction was prepared by the following procedure. Human SLC-1-expression CHO cells (1×10^8 cells) were suspended in phosphate buffered saline (pH 7.4) supplemented with 5 mM EDTA (ethylene diamine tetra acetic acid) followed by centrifugation. after 10 ml of a homogenate buffer (10 mM NaHCO3, 5 mM EDTA, pH 7.5) was added to the cell pellets, the mixture was homogenized with a polytron homogenizer. the homogenate was then centrifuged at 400×g for 15 minutes. the resulting supernatant was further centrifuged at 100,000×g for an hour to give membrane fraction precipitates. the precipitates were suspended in 2 ml of an assay buffer (50 mM Tris-HCl (pH 7.5), 1 mM EDTA, 0.1% BSA (bovine serum albumin), 10 mM MgCl2, 100 mM NaCl, 1 mM GDP (guanosine 5′-diphosphate), 0.25 mM PMSF (phenylmethylsulfonyl fluoride), 1 μg/ml pepstatin, 20 μg/ml leupeptin, 10 μg/ml phosphoramidon] and the suspension was centrifuged at 100,000×g for an hour. the cell membrane recovered as precipitates was resuspended in 20 ml of the assay buffer. after dispensing, the suspension was stored at −80° C., which may be thawed every time at use.

[2] = biological target: T2, rat SLC-1 (Rattus norvegicus, UniProt P97639); assay: cAMP synthesis inhibitory activity on rat SLC-1-expression CHO cells (forskolin-stimulated, cAMP EIA); type: cell-based; conditions: 2 μM forskolin
T2 construct: expressed in transfected cells; host or cells: CHO dhfr- cells, plasmid pAKK0-SLC-1, mainly clone #44
Description: The CHO/SLC-1 cells prepared in EXAMPLE 4 and mock CHO cells were inoculated on a 24-well plate in 5×10^4 cells/well. After incubation for 48 hours, the cells were washed with Hanks' balanced salt solution (pH 7.4) supplemented with 0.2 mM 3-isobutylmethylxanthine, 0.05% BSA and 20 mM HEPES (hereinafter Hanks' balanced salt solution (pH. 7.4) supplemented with 0.2 mM 3-isobutylmethylxanthine, 0.05% BSA and 20 mM HEPES is referred to as a reaction buffer). Thereafter, 0.5 ml of the reaction buffer was added to the cells, which was kept warm in the medium for 30 minutes. The reaction buffer was removed and 0.25 ml of a fresh reaction buffer was added to the cells. Then, 0.25 ml of the reaction buffer containing the HPLC fraction and 2 μM for skolin was added to the cells followed by reacting at 37° C. for 24 minutes. By adding 100 μl of 20% perchloric acid, the reaction was terminated. The reaction mixture was then allowed to stand on ice for an hour to extract intracellular cAMP. The amount of cAMP in the extract was measured using a cAMP EIA kit (Amersham Pharmacia Biotech). As a result, the cAMP synthesis inhibitory activity specific to the CHO/SLC-1 cells was detected in fractions #33, #34 and #35 (FIG. 1). In FIG. 1, taking as 100% the amount obtained by subtracting the intracellular cAMP amount when adding the reaction buffer from the intracellular cAMP amount when adding the forskolin-containing reaction buffer, the cAMP synthesis inhibitory activity was expressed by % in terms of the intracellular cAMP amount obtained by subtracting the intracellular cAMP amount when adding the reaction buffer from the intracellular cAMP amount when adding the HPLC fraction (a 1 μl aliquot of each fraction diluted to 100-fold with DMSO was added).
The CHO/SLC-1 cells selected in EXAMPLE 4 were inoculated on a 24-well plate in 5×10^4 cells/well followed by cultivation for 48 hours. […] The amount of cAMP in the extract was measured using cAMP EIA kit (Amersham Pharmacia Biotech).

[3] = biological target: T2, rat SLC-1; assay: Arachidonic acid metabolite release activity on rat SLC-1-expression CHO cells; type: cell-based
Description: The CHO/SLC-1 cells selected in EXAMPLE 4 were inoculated on a 24-well plate in 5×10^4 cells/well. After incubation for 24 hours, [^3H] arachidonic acid was added to each well in 0.25 μCi/well. Sixteen hours after the addition of [^3H] arachidonic acid, the cells were washed with Hanks' balanced salt solution (pH7.4) containing 0.05% BSA and 20 mM HEPES. […] Hereinafter Hanks' balanced salt solution (pH 7.4) containing 0.05% BSA and 20 mM HEPES is referred to as a reaction buffer. After incubating at 37° C. for 60 minutes, 400 μl of the reaction solution was charged in a scintillator and the amount of [^3H]arachidonic acid metabolites released into the reaction solution was measured using a scintillation counter.

[4] = biological target: T2, rat SLC-1; assay: GTPγS binding activity to rat SLC-1-expression CHO cell membrane fraction (Example 9); type: biochemical
Description: First, preparation of the membrane fraction is described. To 1×10^8 CHO/SLC-1 cells was added 10 ml of a homogenate buffer (10 mM NaHCO3, 5 mM EDTA, 0.5 mM PMSF, 1 μg/ml pepstatin, 4 μg/ml E64, 20 μg/ml leupeptin), followed by cell disruption with a polytron (12,000 rpm, 1 min.). The disrupted cells were then centrifuged (1,000 g, 15 mins.) to give the supernatant. Next, the supernatant was subjected to ultracentrifugation (Beckman type 30 rotor, 30,000 rpm, 1 hour). The resulting precipitate was used as a rat SLC-1-expression CHO cell membrane.
The GTPyS binding activity was assayed as follows. The rat SLC-1-expression CHO cell membrane fraction was diluted with a buffer for membrane dilution (50 mM Tris-hydrochloride buffer (pH 7.4), 5 mM MgCl2, 150 mM NaCl, 1 μM GDP) to make a cell membrane fraction solution for assay having a protein concentration of […]. […] The resulting solution mixture was kept at 25° C. for an hour. The mixture was filtrated through a filter. After washing twice with 1.5 ml of a washing buffer (50 mM Tris-hydrochloride buffer (pH 7.4), 5 mM MgCl2, 1 mM EDTA, 0.1% BSA), radioactivity of the filter was measured using a liquid scintillation counter.

[5] = biological target: T1, human SLC-1; assay: cAMP synthesis inhibitory activity on human SLC-1-expression CHO cells; type: cell-based; conditions: human SLC-1 expression cells (CHO/hSLC-1(S) or CHO/hSLC-1(L)), 2 μM forskolin
Description: The CHO/hSLC-1(S) strain or the CHO/hSLC-1(L) strain, which was human SLC-1-expression CHO cells selected in EXAMPLE 13, was inoculated on a 24-well plate in 5×10^4 cells/well followed by cultivation for 48 hours. The cells were then washed with Hanks' balanced salt solution (pH 7.4) containing 0.2 mM 3-isobutylmethylxanthine, 0.05% BSA and 20 mM HEPES (hereinafter Hanks' balanced salt solution (pH 7.4) containing 0.2 mM 3-isobutylmethylxanthine, 0.05% BSA and 20 mM HEPES is referred to as a reaction buffer). Subsequently, 0.5 ml of the reaction buffer was added to the cells, which was maintained in the medium for 30 minutes. The reaction buffer was removed and 0.25 ml of a fresh reaction buffer was added to the cells. […] By adding 100 μl of 20% perchloric acid, the reaction was terminated. Next, the reaction mixture was allowed to stand on ice for an hour to extract intracellular cAMP. The amount of cAMP in the extract was measured using cAMP EIA kit (Amersham Pharmacia Biotech).

[6] = biological target: T1, human SLC-1; assay: Arachidonic acid metabolite release activity on human SLC-1-expression CHO cells; type: cell-based; conditions: human SLC-1 expression cells (CHO/hSLC-1(S) or CHO/hSLC-1(L))
Description: The CHO/hSLC-1(S) strain or the CHO/hSLC-1(L) strain, which was human SLC-1-expression CHO cells selected in EXAMPLE 13, were inoculated on a 24-well plate in 5×10^4 cells/well. After incubation for 24 hours, [^3H] arachidonic acid was added in 0.25 μCi/well. Sixteen hours after the addition of [^3H] arachidonic acid, the cells were washed with Hanks' balanced salt solution (pH 7.4) containing 0.05% BSA and 20 mM HEPES. […] Hereinafter, Hanks' balanced salt solution (pH7.4) containing 0.05% BSA and 20 mM HEPES is referred to as a reaction buffer. After incubating at 37° C. for 60 minutes, 400 μl of the reaction solution was charged in a scintillator and the amount of [^3H] arachidonic acid metabolites released into the reaction solution was measured using a scintillation counter.

[7] = biological target: T1, human SLC-1; assay: Receptor binding test using [125I]-labeled MCH(4-19) and human SLC-1-expression CHO cell membrane fraction; conditions: various membrane fraction concentrations; FIG. 9
Description: The cell membrane fraction prepared from human SLC-1-expression CHO cells according to EXAMPLE 16 was diluted with an assay buffer (25 mM Tris-HCl, 1 mM EDTA (ethylene diamine tetra acetic acid), 0.1% BSA (bovine serum albumin), 0.25 mM PMSF (phenylmethylsulfonyl fluoride), 1 μg/ml pepstatin, 20 μg/ml leupeptin, 10 μg/ml phosphoramidon, pH 7.5) in various concentration.

T2 sequence (P97639 whole entry): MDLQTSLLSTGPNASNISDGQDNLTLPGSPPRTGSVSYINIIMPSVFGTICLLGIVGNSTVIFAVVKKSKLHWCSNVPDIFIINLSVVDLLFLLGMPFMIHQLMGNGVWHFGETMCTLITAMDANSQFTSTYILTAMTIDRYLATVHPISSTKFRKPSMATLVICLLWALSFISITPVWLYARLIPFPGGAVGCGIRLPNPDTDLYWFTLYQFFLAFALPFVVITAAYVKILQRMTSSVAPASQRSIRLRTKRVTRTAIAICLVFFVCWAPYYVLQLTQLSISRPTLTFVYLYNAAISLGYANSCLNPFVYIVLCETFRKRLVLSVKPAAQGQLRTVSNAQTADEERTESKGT
T1 sequence (Q99705 with tags, fused parts or gaps): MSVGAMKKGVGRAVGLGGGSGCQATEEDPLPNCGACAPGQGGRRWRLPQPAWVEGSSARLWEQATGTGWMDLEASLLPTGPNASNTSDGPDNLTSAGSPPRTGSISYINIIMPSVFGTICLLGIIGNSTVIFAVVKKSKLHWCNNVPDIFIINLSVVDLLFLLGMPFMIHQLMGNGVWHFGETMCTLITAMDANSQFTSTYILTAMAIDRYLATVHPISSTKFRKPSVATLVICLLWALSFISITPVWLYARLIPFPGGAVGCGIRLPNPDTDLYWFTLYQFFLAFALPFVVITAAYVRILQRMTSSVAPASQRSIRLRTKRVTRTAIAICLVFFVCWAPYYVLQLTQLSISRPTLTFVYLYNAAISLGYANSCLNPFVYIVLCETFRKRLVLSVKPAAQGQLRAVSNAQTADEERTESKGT

CSCC[C@@H]1NC(=O)[C@@H](NC(=O)[C@H](CCCNC(=N)N)NC(=O)[C@H](CC(C)C)NC(=O)[C@H](CCSC)NC(=O)[C@H](CC(=O)O)NC(=O)[C@H](Cc2ccccc2)NC(=O)[C@@H](N)CC(=O)O)CSSC[C@@H](C(=O)N[C@@H](Cc2c[nH]c3ccccc23)C(=O)N[C@@H](CCC(N)=O)C(=O)N[C@H](C(=O)O)C(C)C)NC(=O)[C@@H]2CCCN2C(=O)[C@H](CCCNC(=N)N)NC(=O)[C@H](Cc2ccc(O)cc2)NC(=O)[C@H](C(C)C)NC(=O)[C@H](CCCNC(=N)N)NC(=O)CNC(=O)[C@H](CC(C)C)NC1=O [MCH]
amount of [35S]-GTPγS bound, dose dependence [1]: increased dose-dependently | concentration at which the amount of intracellular cAMP was obviously reduced [2]: 0.1 nM | cAMP synthesis (production) inhibitory activity, dose dependence ([2]; FIG. 5): decreased dose-dependently | cAMP synthesis (production) inhibitory activity, dose dependence ([2]; FIG. 5, listed as rat MCH): showed the inhibitory activity dose-dependently | concentration at which apparent release of arachidonic acid metabolites occurred ([3]; 37° C. 60 minutes): 3 nM | arachidonic acid metabolite release, dose dependence ([3]; FIG. 6): dose-dependently released | amount of [35S]-GTPγS bound to the membrane fraction, dose dependence [4]: dose-dependently increased | EC50 ([4]; 25° C. 1 hour, read-out: concentration inducing 50% binding of [35S]-GTPγS): ~0.5 nM | amount of intracellular cAMP, dose dependence [5]: decreased dose-dependently | arachidonic acid metabolite release activity, dose dependence [6]: showed the arachidonic acid metabolite release activity dose-dependently

[^125I]-[N-(3-(4-Hydroxy-3-iodophenyl)propionyl)-Met^4]-MC H(4-19) ({3‑(4-hydroxy-3-(125I)iodophenyl)propionyl}-MLRCMLGRVYRPCWQV; disulfide 4-13) [[^125I]-labeled MCH(4-19)]
specific binding (SB) to the cell membrane fraction [7]: recognized dependent on the concentration of the membrane fraction
